The values that follow come from ChEMBL document CHEMBL2074220, “Interaction of human organic anion transporters with various cephalosporin antibiotics” (Eur J Pharmacol, 2002).

In experiment [1] the target is T1, Organic anion transporter 3 (Homo sapiens, UniProt Q8TCC7).
T1 sequence (Q8TCC7 whole entry): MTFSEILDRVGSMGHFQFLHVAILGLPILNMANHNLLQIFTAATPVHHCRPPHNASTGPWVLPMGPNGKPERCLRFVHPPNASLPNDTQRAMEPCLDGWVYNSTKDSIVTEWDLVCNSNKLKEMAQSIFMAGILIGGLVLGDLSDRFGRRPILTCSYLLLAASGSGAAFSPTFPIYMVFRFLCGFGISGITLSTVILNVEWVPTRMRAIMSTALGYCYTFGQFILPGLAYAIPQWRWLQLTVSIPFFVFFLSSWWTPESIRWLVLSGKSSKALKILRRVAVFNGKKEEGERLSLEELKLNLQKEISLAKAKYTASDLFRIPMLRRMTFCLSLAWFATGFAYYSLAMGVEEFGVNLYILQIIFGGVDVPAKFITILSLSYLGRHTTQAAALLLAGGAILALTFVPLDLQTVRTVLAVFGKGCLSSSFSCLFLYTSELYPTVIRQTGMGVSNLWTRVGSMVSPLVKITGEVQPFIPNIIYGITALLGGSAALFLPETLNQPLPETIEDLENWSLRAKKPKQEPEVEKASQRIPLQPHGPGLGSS
In words: TP_TRANSPORTER: inhibition of Estrone sulfate uptake in OAT3-expressing S2 cells. The class given is functional, cell-based.

Experiment [2] has as its target T2, Solute carrier family 22 member 11 (Homo sapiens, UniProt Q9NSA0).
T2 sequence (Q9NSA0 whole entry): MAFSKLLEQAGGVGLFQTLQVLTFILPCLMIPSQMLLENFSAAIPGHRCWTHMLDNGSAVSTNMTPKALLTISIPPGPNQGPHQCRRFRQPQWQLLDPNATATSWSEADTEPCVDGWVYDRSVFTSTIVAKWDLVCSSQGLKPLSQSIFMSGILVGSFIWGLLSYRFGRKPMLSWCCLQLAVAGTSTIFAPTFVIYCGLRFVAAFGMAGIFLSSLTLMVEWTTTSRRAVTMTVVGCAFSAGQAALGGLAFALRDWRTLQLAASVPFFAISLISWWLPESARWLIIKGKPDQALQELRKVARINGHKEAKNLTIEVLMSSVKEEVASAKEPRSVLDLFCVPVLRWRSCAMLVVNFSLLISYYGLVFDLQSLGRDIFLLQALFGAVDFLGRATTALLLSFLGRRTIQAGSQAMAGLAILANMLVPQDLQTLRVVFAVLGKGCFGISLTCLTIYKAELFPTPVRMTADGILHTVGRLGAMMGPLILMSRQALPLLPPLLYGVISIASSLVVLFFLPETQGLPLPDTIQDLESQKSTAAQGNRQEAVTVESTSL
The experiment in a line: TP_TRANSPORTER: inhibition of Estrone sulfate uptake in OAT4-expressing S2 cells. Format: functional, cell-based.

Take `Cn1nnnc1SCC1=C(C(=O)O)N2C(=O)[C@@H](NC(=O)[C@H](O)c3ccccc3)[C@H]2SC1` [CEFAMANDOLE]: affinity in experiment [1] was put at a Ki of 46 µM.
In turn, `Cc1nnc(SCC2=C(C(=O)O)N3C(=O)[C@@H](NC(=O)Cn4cnnn4)[C@H]3SC2)s1` [CEFAZOLIN] yielded a Ki in experiment [1] of 550 µM.
Take `CO/N=C(\C(=O)N[C@@H]1C(=O)N2C(C(=O)O)=C(COC(C)=O)CS[C@H]12)c1csc(N)n1` [CEFOTAXIME]: the Ki in experiment [1] stood at 290 µM.
For `CC(=O)OCC1=C(C(=O)O)N2C(=O)[C@@H](NC(=O)Cc3cccs3)[C@H]2SC1` [CEPHALOTHIN], the Ki worked out at 40 µM in experiment [1] and 200 µM in experiment [2].
